{"source": "patent US5948628A", "about": "“Methods of screening for compounds which mimic galectin-1” (The Board of Regents of The University of Oklahoma, priority 1997, dated 1999)", "key": {"[1]": {"target": "T1, recombinant galectin-1 (Cys at 2nd residue converted to Ser) (Cricetulus griseus, UniProt P48538, C3S)", "T1 construct": "made in house; host or cells: E. coli", "T1 sequence (P48538 whole entry C3S)": "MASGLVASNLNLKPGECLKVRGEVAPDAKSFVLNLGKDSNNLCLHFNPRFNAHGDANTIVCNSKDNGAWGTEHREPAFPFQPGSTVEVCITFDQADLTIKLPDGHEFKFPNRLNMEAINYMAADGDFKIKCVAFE", "experiment": "Binding of biotinylated galectin-1 to activated neutrophils and desialylated HL-60 cells (flow cytometry)", "assay_type": "cell-based, hamster", "details": "10 mM sugar; galectin-1 10 μg/ml; activated neutrophils, desialylated HL-60 cells", "description": "Isolated neutrophils were activated by treatment with PMA and HL-60 cells were desialylated by treatment with neuraminidase. Heparinized blood was obtained from normal donors. Neutrophils were isolated by dextran sedimentation, hypotonic lysis, and density gradient centrifugation on HISTOPAQUE-1077 (Sigma), as described [G. A. Zimmerman, T. M. McIntyre, and S. M. Prescott, J. Clin. Invest., 76:2235, 1985]. Typically, the polymorphonuclear cells were >90% neutrophils by Wright-Giemsa staining and >90% CD16^+ as assessed by flow cytometry. Neutrophils were activated by treatment with phorbol myristate acetate (PMA) (Sigma) (0.5 μM) for 20 minutes at 37° C. in RPMI containing 20% FCS (0.5 ml). HL-60 cells were routinely maintained in RPMI containing 20% FCS. Desialylated HL-60 cells were prepared by treating 3×10^7 cells with Arthrobacter ureafaciens neuraminidase (Sigma) (100 mU) in 500 μl of RPMI containing 20% FCS for 1 hour at 37° C. […] The washed cells were incubated with FITC-streptavidin (1:100 dilution) (Sigma), washed once with PBS, and analyzed by flow cytometry. […] \"Unstained\" indicates fluorescence of either resting neutrophils or HL-60 cells incubated in the absence of either MAL or galectin-1. \"Control\" indicates fluorescence of either activated neutrophils or desialylated HL-60 cells incubated with galectin-1 in the presence of 10 mM lactose."}, "[2]": {"target": "T2, hamster galectin-1 mutant C2S-Gal-1 (Cys-2 to Ser), SEQ ID NO:2 (Cricetulus griseus, UniProt P48538, C3S)", "T2 construct": "made in house; host or cells: E. coli", "T2 sequence (P48538 whole entry C3S)": "as above", "experiment": "Equilibrium dialysis binding of N-acetyllactosamine", "details": "stated only as similar affinity to the monomeric mutants", "description": "(§1) Specific mutations were created in the six N-terminal amino acids (SEQ ID NO:1) of hamster galectin-1, as indicated in FIG. 3 and as described in further detail in Cho and Cummings, Biochemistry, 35:13081, 1996, which is hereby incorporated by reference herein in its entirety. C2S-Gal-1 (SEQ ID NO:2) contains a single replacement of Cys-2 to Ser. V5D-Gal-1 (SEQ ID NO:3) contains a single mutation of Val-5 to Asp. N-Gal-1 (SEQ ID NO:4) contains disruptions of three hydrophobic amino acids at the N-terminus. We also made another mutant construct, termed N/C-Gal-1, which contained the amino terminal changes of N-Gal-1 in addition to multiple changes in specific hydrophobic amino acids at the C-terminus (data not shown). All mutants, except for C2S-Gal-1, behaved as monomers in size exclusion HPLC and native gel electrophoresis. C2S-Gal-1 was indistinguishable from the native lectin in its ability to undergo monomer-dimer equilibrium and in its carbohydrate-binding affinity. […] However, in equilibrium dialysis N-Gal-1 and V5D-Gal-1 bound N-acetyllactosamine with similar affinity (Kd ≈90 μM) to that of the C2S-Gal-1 and the native lectin. […] N/C-Gal-1 was non-functional."}, "[3]": {"target": "T3, hamster galectin-1 mutant N-Gal-1 (monomeric; three hydrophobic N-terminal amino acids disrupted), SEQ ID NO:4 (Cricetulus griseus, UniProt P48538, A7S/C3S/L5Q/V6D)", "T3 construct": "made in house; host or cells: E. coli", "T3 sequence (P48538 2-135 C3S/L5Q/V6D/A7S limits assumed)": "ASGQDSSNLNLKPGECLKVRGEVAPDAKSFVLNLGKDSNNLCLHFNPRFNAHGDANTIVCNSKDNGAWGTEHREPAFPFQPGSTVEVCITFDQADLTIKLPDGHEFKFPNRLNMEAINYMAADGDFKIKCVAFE", "experiment": "Equilibrium dialysis binding of N-acetyllactosamine", "description": "as §1"}, "[4]": {"target": "T4, hamster galectin-1 mutant V5D-Gal-1 (Val-5 to Asp), SEQ ID NO:3 (Cricetulus griseus, UniProt P48538, V6D)", "T4 construct": "made in house; host or cells: E. coli", "T4 sequence (P48538 whole entry V6D)": "as the sequence (P48538 whole entry C3S) above, with S3C, V6D counted along it", "experiment": "Equilibrium dialysis binding of N-acetyllactosamine", "description": "as §1"}, "[5]": {"target": "hamster galectin-1, native lectin (N-terminus SEQ ID NO:1) (Cricetulus griseus, UniProt P48538)", "sequence (P48538 2-135)": "as the sequence (P48538 2-135 C3S/L5Q/V6D/A7S limits assumed) above, with S2C, Q4L, D5V, S6A counted along it", "experiment": "Equilibrium dialysis binding of N-acetyllactosamine", "details": "stated only as similar affinity to the monomeric mutants", "description": "as §1"}, "[6]": {"target": "T1, recombinant galectin-1 (Cys at 2nd residue converted to Ser)", "experiment": "Galectin-1-induced apoptosis of activated neutrophils and desialylated HL-60 cells (annexin V staining)", "assay_type": "cell-based, hamster", "details": "galectin-1 10 μM; lactose 10 mM", "procedure": "Resting or activated neutrophils (3×10^6 cells) were treated with galectin-1 (10 μM) in 0.5 ml of HBSS (lacking Ca^2+ /Mg^2+ and containing 0.5% human albumin) for 90 minutes at 37° C. in the presence or absence of 10 mM lactose. HL-60 cells and desialylated HL-60 cells (3×10^6 cells/0.5 ml) were treated with galectin-1 (10 μM) for 20 hours at 37° C. in the presence or absence of 10 mM lactose. At the end of the incubations all cells were treated with 10 mM lactose in PBS to disaggregate the cells. […]\nAnnexin V is a protein that recognizes phosphatidyl serine (PS) and is a convenient marker for apoptosis of neutrophils and other cells (S. J. Martin, C. P. Reutelingsperger, A. J. McGahon, J. A. Rader, R. C. van Schie, D. M. LaFace and D. R. Green DR, J. Exp. Med., 182:1545, 1995; C. H. Homburg, M. de Haas, A. E. von dem Borne, A. J. Verhoeven, C. P. Reutelingsperger and D. Roos, Blood, 85:532, 1995; I. Vermes, C. Haanen, H. Steffens-Nakken, and C. Reutelingsperger, J. Immunol. Methods, 184:39, 1995; Z. Darzynkiewicz, G. Juan, X. Li, W. Gorczyca, T. Murakami, and F. Traganos, Cytometry 27:1, 1997). […] Within 90 minutes following treatment with 10 μM galectin-1, 36% of the activated neutrophils undergo apoptosis, as determined by their staining with annexin V (FIG. 2A). […]"}, "[7]": {"target": "T1, recombinant galectin-1 (Cys at 2nd residue converted to Ser)", "experiment": "Cell agglutination by galectin-1", "assay_type": "cell-based, hamster", "procedure": "In all cases cell binding of galectin-1 to cells was inhibited by 10 mM lactose, a known inhibitor of galectin-1 (FIG. 1), but not by 10 mM maltose, an isomeric, non-inhibitory analog (data not shown). We noted that both activated neutrophils and desialylated HL-60 cells are strongly agglutinated by galectin-1, whereas resting neutrophils and HL-60 cells are not appreciably agglutinated, which further underscores the profound differences in surface phenotypes between resting and activated neutrophils."}}, "data": [{"molecule": "OC[C@H]1O[C@H](O[C@H]2[C@H](O)[C@@H](O)[C@H](O)O[C@@H]2CO)[C@H](O)[C@@H](O)[C@@H]1O", "note": "[maltose]", "values": [{"measurement": "Inhibition of cell binding of galectin-1", "setting": "[1]", "result": "non-inhibitory"}]}, {"molecule": "CC(=O)N[C@H]1C(O)O[C@H](CO)[C@@H](O[C@@H]2O[C@H](CO)[C@H](O)[C@H](O)[C@H]2O)[C@@H]1O", "note": "(some centres unmarked) [N-acetyllactosamine]", "values": [{"measurement": "Kd", "setting": "[2]", "result": "~90", "unit": "µM"}, {"measurement": "Kd", "setting": "[3]", "result": "~90", "unit": "µM"}, {"measurement": "Kd", "setting": "[4]", "result": "~90", "unit": "µM"}, {"measurement": "Kd", "setting": "[5]", "result": "~90", "unit": "µM"}]}, {"molecule": "OC[C@H]1O[C@@H](O[C@H]2[C@H](O)[C@@H](O)C(O)O[C@@H]2CO)[C@H](O)[C@@H](O)[C@H]1O", "note": "(some centres unmarked) [lactose]", "values": [{"measurement": "Inhibition of cell binding of galectin-1", "setting": "[1]", "result": "inhibited"}, {"measurement": "Inhibition of apoptosis-inducing activity of galectin-1", "setting": "[6]", "result": "inhibited"}, {"measurement": "Inhibition of cell agglutinating activity of galectin-1", "setting": "[7]", "result": "inhibited"}]}]}
